This is an account of results in patent US6737383B1, “Herbicidal oxadiazolidines” (priority 1999, dated 2004).

The test system of one assay is pigweed. Nature of the assay: Test B pre/postemergence pigweed. It counts as in vivo, Amaranthus retroflexus. The essentials:
(§1)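 Test chemicals in a non-phytotoxic solvent mixture with surfactant were sprayed preemergence onto planted seeds and postemergence onto plants 2 to 18 cm tall (1- to 4-leaf stage). After twelve to sixteen days in a greenhouse, injury was visually rated against untreated controls from 0 (no effect) to 10 (complete control).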

In the next assay the test system is morningglory. Nature of the assay: Test B pre/postemergence morningglory. It counts as in vivo, Ipomoea hederacea. The essentials: as §1
Another assay concerns giant foxtail. Nature of the assay: Test B pre/postemergence giant foxtail. In kind it is in vivo, Setaria faberii. The essentials: as §1
The mark [1] stands for this setting: Postemergence, Rate 125 g/ha, scale of 0 to 10 where 0 is no effect and 10 is complete control.
The mark [2] stands for this setting: Preemergence, Rate 62 g/ha, scale 0 to 10 (0 no effect, 10 complete control).
Where [3] appears, read: Preemergence, Rate 125 g/ha, 0 is no effect, 10 is complete control.
Where [4] appears, read: Preemergence, Rate 250 g/ha, scale 0 to 10, 0 is no effect, 10 is complete control.
Setting [5] is: Preemergence, Rate 500 g/ha, scale 0 to 10 (0 no effect, 10 complete control).
[6] abbreviates: Rate 62 g/ha, Postemergence, scale of 0 to 10 where 0 is no effect and 10 is complete control.
[7] abbreviates: Rate 250 g/ha, Postemergence, scale 0 to 10, 0 is no effect, 10 is complete control.
The mark [8] stands for this setting: Rate 500 g/ha, Postemergence, scale 0 to 10.
The mark [9] stands for this setting: Preemergence, Rate 62 g/ha, scale of 0 to 10 where 0 is no effect and 10 is complete control.
Setting [10] is: Preemergence, Rate 500 g/ha, scale of 0 to 10 where 0 is no effect and 10 is complete control.
Setting [11] is: Rate 125 g/ha, Postemergence, scale 0 to 10.
[12] abbreviates: Postemergence, Rate 125 g/ha, scale 0 to 10, 0 is no effect, 10 is complete control.
Where [13] appears, read: Preemergence, Rate 250 g/ha, scale of 0 to 10 where 0 is no effect and 10 is complete control.
The mark [14] stands for this setting: Rate 62 g/ha, Postemergence, scale 0 to 10 (0 no effect, 10 complete control).
Where [15] appears, read: Rate 500 g/ha, Postemergence, scale 0 to 10, 0 no effect, 10 complete control.
[16] abbreviates: Postemergence, Rate 62 g/ha, scale 0 to 10, 0 is no effect, 10 is complete control.
Setting [17] is: Postemergence, Rate 250 g/ha, scale 0 to 10, 0 no effect, 10 complete control.
Setting [18] is: Preemergence, Rate 62 g/ha, scale 0 to 10, 0 is no effect, 10 is complete control.
Where [19] appears, read: Preemergence, Rate 125 g/ha, scale 0 to 10 (0 no effect, 10 complete control).
The mark [20] stands for this setting: Preemergence, Rate 500 g/ha, scale 0 (no effect) to 10 (complete control).
Where [21] appears, read: Rate 125 g/ha, Postemergence, scale 0 to 10, 0 no effect, 10 complete control.
The mark [22] stands for this setting: Rate 500 g/ha, Postemergence, 0 to 10 scale (0 no effect, 10 complete control).
The mark [23] stands for this setting: Postemergence, Rate 1000 g/ha, scale 0 to 10 (0 no effect, 10 complete control).
[24] abbreviates: Rate 1000 g/ha, Preemergence, scale 0 to 10 (0 no effect, 10 complete control).
Where [25] appears, read: Preemergence, Rate 31 g/ha, visual rating, scale 0 to 10 (0 no effect, 10 complete control).
The mark [26] stands for this setting: Rate 31 g/ha, Postemergence, scale 0 to 10.

As to `Cc1cnn(C)c1-n1c(=O)on(C(=O)N(c2ccc(F)cc2)C(C)C)c1=O` [Compound 125], the “Redroot pigweed plant response rating” value in the assay on pigweed (setting [1]), in the assay with pigweed (setting [2]), with pigweed (setting [4]), in the assay with pigweed (setting [5]), in the assay on pigweed (setting [6]) and in the assay on pigweed (setting [8]) was 0 each time. Further, the “Redroot pigweed plant response rating (0 to 10 scale)” value in the assay on pigweed (setting [3]) stood at 0. The “Plant response rating, Redroot pigweed” value with pigweed (setting [7]) was determined as 0. Moreover, the “Morningglory plant response rating” value worked out at 0 in the assay with morningglory (setting [1]); 0 with morningglory (setting [2]); 0 with morningglory (setting [4]); 0 in the assay on morningglory (setting [5]); 0 in the assay on morningglory (setting [6]); 2 with morningglory (setting [8]). Moreover, the “Morningglory plant response rating (0 to 10 scale)” value with morningglory (setting [3]) is 0. In the assay with morningglory (setting [7]), the “Plant response rating, Morningglory” value is reported as 2. The “Giant foxtail plant response rating” value in the assay with giant foxtail (setting [1]), in the assay with giant foxtail (setting [2]), in the assay with giant foxtail (setting [5]), in the assay on giant foxtail (setting [6]) and with giant foxtail (setting [8]) was 0 each time. Moreover, in the assay with giant foxtail (setting [3]), the “Giant foxtail plant response rating (0 to 10 scale)” value is listed as 0. For the same molecule, the “Plant response rating, Giant foxtail” value in the assay on giant foxtail (setting [7]) was found to be 0.
Consider `CCC(CC)N(C(=O)n1oc(=O)n(-c2ccccc2C)c1=O)c1ccc(F)cc1` [Compound 193], for which the “Redroot pigweed plant response rating” value with pigweed (setting [9]), in the assay on pigweed (setting [4]), in the assay on pigweed (setting [6]), in the assay with pigweed (setting [11]) and in the assay with pigweed (setting [8]) was 0 throughout. The “Redroot pigweed plant response rating (0 to 10 scale)” value in the assay with pigweed (setting [3]) was found to be 0. In the assay on pigweed (setting [10]), the “Plant response rating, Redroot pigweed” value amounted to 0. Also, the “Plant response rating (0 to 10; 0 is no effect, 10 is complete control), Redroot pigweed” value with pigweed (Rate 250 g/ha, Postemergence) is reported as 0. In addition, the “Morningglory plant response rating” value in the assay on morningglory (setting [9]) came out at 0; in the assay on morningglory (setting [4]), 0; with morningglory (setting [6]), 0; with morningglory (setting [11]), 0; in the assay on morningglory (setting [8]), 2. The “Morningglory plant response rating (0 to 10 scale)” value in the assay with morningglory (setting [3]) was found to be 0. In the assay with morningglory (setting [10]), the “Plant response rating, Morningglory” value came to 0. Moreover, in the assay with morningglory (Rate 250 g/ha, Postemergence), the “Plant response rating (0 to 10; 0 is no effect, 10 is complete control), Morningglory” value is 1. For the same molecule, the “Giant foxtail plant response rating” value came out at 2 in the assay on giant foxtail (setting [9]); 5 in the assay on giant foxtail (setting [4]); 0 with giant foxtail (setting [6]); 0 in the assay on giant foxtail (setting [11]); 0 in the assay with giant foxtail (setting [8]). Moreover, the “Giant foxtail plant response rating (0 to 10 scale)” value with giant foxtail (setting [3]) worked out at 4. Further, in the assay on giant foxtail (setting [10]), the “Plant response rating, Giant foxtail” value stood at 6. In the assay with giant foxtail (Rate 250 g/ha, Postemergence), the “Plant response rating (0 to 10; 0 is no effect, 10 is complete control), Giant foxtail” value came out at 0.
For `CC(C)N(C(=O)n1oc(=O)n(-c2ccc3ccccc3c2)c1=O)c1ccc(F)cc1F` [Compound 335], the “Plant response rating, Redroot pigweed” value with pigweed (setting [12]) and in the assay on pigweed (setting [15]) was 0 in each case. In addition, the “Redroot pigweed plant response rating” value with pigweed (setting [9]), in the assay on pigweed (setting [13]), with pigweed (setting [10]) and in the assay on pigweed (setting [14]) was 0 in each case. Also, the “Redroot pigweed plant response rating (0 to 10 scale)” value in the assay on pigweed (Preemergence, Rate 125 g/ha) is 0. The “Plant response rating, Morningglory” value in the assay with morningglory (setting [12]) and in the assay with morningglory (setting [15]) was 0 each time. Further, the “Morningglory plant response rating” value in the assay with morningglory (setting [9]), in the assay on morningglory (setting [13]), with morningglory (setting [10]) and in the assay on morningglory (setting [14]) was 0 each time. Moreover, the “Morningglory plant response rating (0 to 10 scale)” value in the assay on morningglory (Preemergence, Rate 125 g/ha) is 0. For the same molecule, the “Plant response rating, Giant foxtail” value in the assay with giant foxtail (setting [12]) and with giant foxtail (setting [15]) was 0 in each case. For the same molecule, the “Giant foxtail plant response rating” value stood at 2 in the assay with giant foxtail (setting [9]), 10 with giant foxtail (setting [13]), 10 in the assay with giant foxtail (setting [10]) and 0 in the assay on giant foxtail (setting [14]). The “Giant foxtail plant response rating (0 to 10 scale)” value with giant foxtail (Preemergence, Rate 125 g/ha) worked out at 4.
`Cc1ccccc1-n1c(=O)on(C(=O)N(C2=CCOCC2)C(C)C)c1=O` [Compound 10]: the “Redroot pigweed plant response rating” value with pigweed (setting [16]), in the assay with pigweed (setting [17]), with pigweed (setting [20]), in the assay on pigweed (setting [21]) and in the assay on pigweed (setting [22]) was 0 throughout. For the same molecule, the “Plant response rating, Redroot pigweed” value in the assay with pigweed (setting [18]), in the assay with pigweed (setting [19]) and with pigweed (setting [13]) was 0 throughout. The “Morningglory plant response rating” value is reported as 0 in the assay with morningglory (setting [16]); 2 with morningglory (setting [17]); 0 with morningglory (setting [20]); 2 with morningglory (setting [21]); 3 with morningglory (setting [22]). Also, the “Plant response rating, Morningglory” value with morningglory (setting [18]), in the assay with morningglory (setting [19]) and in the assay with morningglory (setting [13]) was 0 in each case. The “Giant foxtail plant response rating” value in the assay with giant foxtail (setting [16]) was 2; with giant foxtail (setting [17]) it was 8; in the assay on giant foxtail (setting [20]), 9; in the assay with giant foxtail (setting [21]), 5; with giant foxtail (setting [22]), 8. The “Plant response rating, Giant foxtail” value in the assay on giant foxtail (setting [18]) came out at 3; in the assay on giant foxtail (setting [19]), 6; in the assay on giant foxtail (setting [13]), 9.
For the molecule `CC(C)N(C(=O)n1oc(=O)n(-c2ccc(OC(F)(F)F)cc2)c1=O)C1=CCOCC1` [Compound 13], the “Redroot pigweed plant response rating” value in the assay with pigweed (setting [17]), in the assay with pigweed (setting [23]), in the assay with pigweed (setting [20]), in the assay on pigweed (setting [21]) and in the assay with pigweed (setting [22]) was 0 throughout. Moreover, the “Plant response rating, Redroot pigweed” value with pigweed (setting [19]) worked out at 0; with pigweed (setting [13]), 0; with pigweed (setting [24]), 3. The “Morningglory plant response rating” value in the assay on morningglory (setting [17]), with morningglory (setting [23]), in the assay on morningglory (setting [20]), in the assay with morningglory (setting [21]) and in the assay with morningglory (setting [22]) was 0 in each case. Besides, the “Plant response rating, Morningglory” value in the assay on morningglory (setting [19]) worked out at 0; with morningglory (setting [13]), 0; in the assay with morningglory (setting [24]) it was 2. In addition, the “Giant foxtail plant response rating” value with giant foxtail (setting [17]) is listed as 2; with giant foxtail (setting [23]), 7; in the assay on giant foxtail (setting [20]) it was 8; in the assay with giant foxtail (setting [21]), 0; in the assay with giant foxtail (setting [22]), 7. In addition, the “Plant response rating, Giant foxtail” value with giant foxtail (setting [19]) was determined as 3; with giant foxtail (setting [13]) it was 8; in the assay with giant foxtail (setting [24]) it was 8.
As for `Cc1noc(C)c1-n1c(=O)on(C(=O)N(c2ccc(F)cc2)C(C)C)c1=O` [Compound 155], the “Redroot pigweed plant response rating” value in the assay with pigweed (setting [1]) stood at 0; with pigweed (setting [25]) it was 0; in the assay on pigweed (setting [2]), 0; with pigweed (setting [4]), 3; in the assay on pigweed (setting [26]), 0; with pigweed (setting [6]) it was 0. The “Redroot pigweed plant response rating (0 to 10 scale)” value with pigweed (setting [3]) came to 0. The “Plant response rating, Redroot pigweed” value with pigweed (setting [7]) came out at 0. Also, the “Morningglory plant response rating” value in the assay with morningglory (setting [1]), with morningglory (setting [25]), in the assay with morningglory (setting [2]), with morningglory (setting [4]), in the assay on morningglory (setting [26]) and in the assay with morningglory (setting [6]) was 0 in each case. Also, the “Morningglory plant response rating (0 to 10 scale)” value in the assay on morningglory (setting [3]) turned out to be 0. In the assay on morningglory (setting [7]), the “Plant response rating, Morningglory” value was determined as 2. Moreover, the “Giant foxtail plant response rating” value in the assay with giant foxtail (setting [1]) turned out to be 3; with giant foxtail (setting [25]) it was 0; with giant foxtail (setting [2]), 0; with giant foxtail (setting [4]) it was 2; with giant foxtail (setting [26]), 0; in the assay on giant foxtail (setting [6]), 1. In addition, the “Giant foxtail plant response rating (0 to 10 scale)” value in the assay with giant foxtail (setting [3]) was found to be 0. In the assay on giant foxtail (setting [7]), the “Plant response rating, Giant foxtail” value amounted to 6.
